According to PubChem BioAssay (NCI):
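Protocol summary: plate cells (96-well), add compound at 5 concentrations, incubate 48 h, interpolate endpoints linearly. Here, GI50 denotes the concentration required for 50% inhibition of growth. The concentration for full growth arrest is given as TGI.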

Key:
Experiment in all cases: DTP human tumour cell line panel, 48 h
SK-MEL-28 melanoma = system: SK-MEL-28 melanoma
SK-OV-3 ovarian = system: SK-OV-3 ovarian
SF-268 CNS = system: SF-268 CNS
NCI-H460 lung = system: NCI-H460 lung
OVCAR-8 ovarian = system: OVCAR-8 ovarian
TK-10 renal = system: TK-10 renal
SK-MEL-5 melanoma = system: SK-MEL-5 melanoma
A498 renal = system: A498 renal
NCI/ADR-RES ovarian = system: NCI/ADR-RES ovarian
SW-620 colon = system: SW-620 colon
CAKI-1 renal = system: CAKI-1 renal
COLO 205 colon = system: COLO 205 colon
K-562 leukemia = system: K-562 leukemia
MCF7 breast = system: MCF7 breast
SN12C renal = system: SN12C renal
MDA-MB-435 = system: MDA-MB-435
UACC-257 melanoma = system: UACC-257 melanoma
RPMI-8226 leukemia = system: RPMI-8226 leukemia
HL-60(TB) leukemia = system: HL-60(TB) leukemia
HOP-92 NSCLC = system: HOP-92 NSCLC
HOP-62 NSCLC = system: HOP-62 NSCLC
OVCAR-5 ovarian = system: OVCAR-5 ovarian
786-0 renal = system: 786-0 renal
SNB-19 CNS = system: SNB-19 CNS
DU-145 prostate = system: DU-145 prostate
HT29 colon = system: HT29 colon
NCI-H226 lung = system: NCI-H226 lung
UO-31 renal = system: UO-31 renal

NC(CSSCC(N)C(=O)O)C(=O)O (stereo not given)
TGI (SK-MEL-28 melanoma): > 100 µM
GI50 (SK-OV-3 ovarian): > 100 µM
TGI (SK-OV-3 ovarian): > 100 µM
GI50 (SF-268 CNS): > 100 µM
TGI (SF-268 CNS): > 100 µM
GI50 (NCI-H460 lung): > 100 µM
TGI (NCI-H460 lung): > 100 µM
GI50 (OVCAR-8 ovarian): > 100 µM
TGI (OVCAR-8 ovarian): > 100 µM
GI50 (TK-10 renal): > 100 µM
TGI (TK-10 renal): > 100 µM
GI50 (SK-MEL-5 melanoma): > 100 µM
TGI (SK-MEL-5 melanoma): > 100 µM
GI50 (A498 renal): > 100 µM
TGI (A498 renal): > 100 µM
GI50 (NCI/ADR-RES ovarian): > 100 µM
TGI (NCI/ADR-RES ovarian): > 100 µM
GI50 (SW-620 colon): > 100 µM
TGI (SW-620 colon): > 100 µM
GI50 (CAKI-1 renal): > 100 µM
TGI (CAKI-1 renal): > 100 µM
GI50 (COLO 205 colon): > 100 µM
TGI (COLO 205 colon): > 100 µM
GI50 (K-562 leukemia): > 100 µM
TGI (K-562 leukemia): > 100 µM
GI50 (MCF7 breast): > 100 µM
TGI (MCF7 breast): > 100 µM
GI50 (SN12C renal): > 100 µM
TGI (SN12C renal): > 100 µM
GI50 (MDA-MB-435): > 100 µM
TGI (MDA-MB-435): > 100 µM
GI50 (UACC-257 melanoma): > 100 µM
TGI (UACC-257 melanoma): > 100 µM
GI50 (RPMI-8226 leukemia): > 100 µM
TGI (RPMI-8226 leukemia): > 100 µM
GI50 (HL-60(TB) leukemia): > 100 µM
TGI (HL-60(TB) leukemia): > 100 µM
GI50 (HOP-92 NSCLC): > 100 µM
TGI (HOP-92 NSCLC): > 100 µM
GI50 (HOP-62 NSCLC): > 100 µM
TGI (HOP-62 NSCLC): > 100 µM
GI50 (OVCAR-5 ovarian): > 100 µM
TGI (OVCAR-5 ovarian): > 100 µM
GI50 (786-0 renal): > 100 µM
TGI (786-0 renal): > 100 µM
GI50 (SNB-19 CNS): > 100 µM
TGI (SNB-19 CNS): > 100 µM
GI50 (DU-145 prostate): > 100 µM
TGI (DU-145 prostate): > 100 µM
GI50 (HT29 colon): > 100 µM
TGI (HT29 colon): > 100 µM
GI50 (NCI-H226 lung): > 100 µM
TGI (NCI-H226 lung): > 100 µM
GI50 (UO-31 renal): > 100 µM
TGI (UO-31 renal): > 100 µM
